Experimental data published in ChEMBL document CHEMBL1123451, “Enol lactone inhibitors of serine proteases. The effect of regiochemistry on the inactivation behavior of phenyl-substituted (halomethylene)tetra- and -dihydrofuranones and (halomethylene)tetrahydropyranones toward alpha-chymotrypsin: stable acyl enzyme intermediate” (J Med Chem, 1986).
pKi: −log10 of the molar value.

How the values were obtained:
[1] = Hydrolysis rate constant of the compound; assay type: ADME
[2] = biological target: T1, Chymotrypsinogen B (Homo sapiens, UniProt P17538); test: Binding constant alpha-chymotrypsin was determined by competitive inhibition assay with BTEE as substrate
[3] = biological target: T1, Chymotrypsinogen B; test: Binding constant alpha-chymotrypsin was determined by competitive inhibition assay with Suc-Ala-Ala-Pro-Phe-pNA as substrate
[4] = Catalytic rate constant of the compound; assay type: ADME

T1 sequence (P17538 34-164 limits assumed, other chains not shown): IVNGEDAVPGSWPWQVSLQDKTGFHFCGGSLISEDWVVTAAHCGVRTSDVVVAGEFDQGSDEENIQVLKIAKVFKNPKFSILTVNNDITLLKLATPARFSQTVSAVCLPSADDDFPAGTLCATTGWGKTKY
T1 sequence (P17538 167-263 limits assumed, other chains not shown): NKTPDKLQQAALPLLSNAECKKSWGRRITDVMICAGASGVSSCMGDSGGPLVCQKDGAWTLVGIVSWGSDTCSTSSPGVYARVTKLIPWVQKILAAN

Kh [1] [min⁻¹] | pKi [2] | pKi [3] | Kc [4] [min⁻¹] | Structure (SMILES)
0.0021 | – | – | – | O=C1CC(c2ccccc2)/C(=C\I)O1 (stereo not drawn)
0.0015 | – | – | – | C=C1CC(c2ccccc2)CC(=O)O1 (stereo not drawn)
0.004 | 4.26 | – | – | O=C1CCC(c2ccccc2)/C(=C\I)O1 (stereo not drawn)
0.0015 | – | – | – | O=C1C=C(c2ccccc2)/C(=C\I)O1
0.0068 | – | 8.28 | 0.025 | O=C1CC(c2ccccc2)C/C(=C\I)O1 (stereo not drawn)
